Measured values from patent publication US4464389A, “Esters of retinoic acid and pentaerythritol and monobenzal acetals thereof” (SRI International, priority 1982, dated 1984).

Key:
[1] = test system: Hamster Tracheal Organ Culture (keratinization); assay: Reversal of keratinization in hamster tracheal organ culture; assay type: cell-based
Protocol: (§1) The ODC assay measures a compound's effect on the prevention of the induction of ODC. The tracheal organ culture assay measures a compound's ability to reverse keratinization.
The tracheal organ culture assay is carried out as follows. Tracheas are taken from hamsters that are in very early stages of vitamin A deficiency and placed in organ culture. At the time of culture, the animals are still gaining weight; the tracheal epithelium is generally low columnar or cuboidal, with only occasional patches of squamous metaplasia. Each trachea is opened from the larynx to the carina along the membranous dorsal wall and cultured in a serum-free medium (CMRL-1066; with crystalline bovine insulin, 0.1 μg/ml; hydrocortisone hemisuccinate, 0.1 μg/ml; glutamine, 2 mM; penicillin, 100 units/ml; and streptomycin,100 μg/ml, added). Cultures are gassed with 50% oxygen, 45% nitrogen, and 5% CO2. The culture dishes are rocked at 35.5-36.0 degrees to allow the tracheas contact with both gas and medium. All tracheas are grown in medium containing no retinoid for the first 3 days. At the end of 3 days, some tracheas are harvested; almost all of these tracheas have significant squamous metaplasia, and approximately 60% have keratinized lesions. The remaining tracheas are then divided into different groups which are treated with either: (1) retinoid dissolved in dimethylsulfoxide (final concentration of DMSO in culture medium is never greater than 0.1%) or (2) an equivalent amount of DMSO alone. Culture medium is changed three times a week, and all of the remaining tracheas are harvested at the end of 10 days in culture. Tracheas are fixed in 10% buffered formalin and embedded in paraffin. Cross sections of five micrometers are made through the mid-portion, stained with hematoxylin and eosin, and then scored with a microscope for the presence of keratin and keratohyaline granules, both of which are found in approximately 90% of control cultures that receive no retinoid for the entire 10 day culture period.

Ornithine Decarboxylase = assay: Inhibition of induction of ornithine decarboxylase (ODC) by 12-O-tetradecanoylphorbol-13-acetate in mouse skin; assay type: in vivo; conditions: topical, 1 hour before TPA (17 nmol)
Protocol: as §1
The ODC assay is carried out as follows. Female Charles River CD-1 mice from Charles River Breeding Laboratories, Wilmington, Mass., are used (age 7 to 9 weeks). The dorsal hair of the mice is shaved 1 to 2 days before testing, and only mice showing no hair regrowth are used. A single dose of 12-O-tetradecanoylphorbol-13-acetate (TPA) (10.5 μg, 17 nmol) in 0.2 mL of acetone is applied topically to the back of each mouse. The test compound, at one of three dose levels (1.7, 17, and 170 nmol), dissolved in 0.2 mL of acetone is applied 1 hour before the TPA treatment to the test groups; the control group is treated with acetone alone. The mice are killed by cervical dislocation five hours after TPA treatment. Determinations are done in triplicate.
The epidermis is obtained from the sacrificed animals. To obtain sufficient material, the dorsal skins from 2 to 3 mice in each treatment group are pooled. The depilatory agent Nudit® (Helena Rubinstein, New York) is applied to the shaved area of the skin; after 5 minutes, it is washed off thoroughly with cold tap water. Then the skin is excised and plunged immediately into ice-cold water; it is then placed in a 55° C. water bath for 30 seconds and reimmersed in ice-cold water for at least another 30 seconds. The skin is placed epidermis side up on a cold plate, and the epidermis is scraped off with a razor blade. The pooled epidermal sheets are homogenized (Polytron PT-10 homogenizer) at 0° to 4° C. for 15-20 seconds in 50 mM sodium phosphate buffer (pH 7.2) containing 0.1 mM pyridoxal phosphate and 0.1 mM ethylenediaminetetraacetic acid (EDTA), at a volume of 1 mL/skin.
The supernatant fraction remaining after centrifugation of the homogenate at 10,000×g for 30 seconds at 0° C. is used for the enzyme assay. Enzyme activity is determined using the microassay for ODC as described by Verma and Boutwell to measure the release of ^14 CO2 from DL-[1-^14 C]-ornithine (58 mCi/mmol) after incubation with the 10,000×g supernatant. The incubations are carried out by decanting, with a Pasteur pipette, 100 μL of the supernatant containing 100 to 120 μg of protein into two or three 15-mL Corex tubes in a shaking water bath at 37° C. The assay mixture in the tubes consists of 50 μL of 100 mM sodium phosphate buffer (pH 7.2), 10 μL of 4 mM pyridoxal phosphate, 40 μL of 25 mM dithiothreitol, and 1 μL of 0.1M EDTA. The center wells in the tubes are filled with 200 μL of a 2:1 solution (v/v) of ethanolamine:2-methoxyethanol. The reaction is started by adding 50 μL of substrate (0.5 μCi of DL-[1-^14 C]-ornithine in 2 mM cold ornithine) at 1-minute intervals by injection to each of the stoppered tubes. Incubations are routinely carried out at 37° C. for 30 to 60 minutes. The reaction is stopped by addition of 0.5 ml of 2M citric acid, and incubation is continued for an additional hour without heating to ensure complete absorption of ^14 CO2.
Radioactivity is measured using a toluene-based scintillant (4 g of PPO and 50 mg of POPOP/L of toluene) in a Beckman LS-250 liquid scintillation counter. Enzyme activity is determined in triplicate and expressed as nanomoles of CO2 released in 30 minutes per milligram of protein. Enzyme activity is linear for the protein concentration used. The protein concentrations of the epidermal extracts are determined by the Lowry procedure, using bovine serum albumin as the standard.

CC1=C(/C=C/C(C)=C/C=C/C(C)=C/C(=O)OCC(CO)(CO)CO)C(C)(C)CCC1 [Example 2, Pentaerythritol Monoretinoate]
Reversal of Keratinization, Active/Total Cultures ([1]; Conc 10^-8 M): 13/13 | Reversal of Keratinization, Active/Total Cultures (%) ([1]; Conc 10^-8 M): 100% | Reversal of Keratinization, Active/Total Cultures ([1]; Conc 10^-9 M): 15/15 | Reversal of Keratinization, Active/Total Cultures (%) ([1]; Conc 10^-9 M): 100% | Reversal of Keratinization, Active/Total Cultures ([1]; Conc 10^-10 M): 18/25 | Reversal of Keratinization, Active/Total Cultures (%) ([1]; Conc 10^-10 M): 72% | Reversal of Keratinization, Active/Total Cultures ([1]; Conc 10^-11 M): 5/11 | Reversal of Keratinization, Active/Total Cultures (%) ([1]; Conc 10^-11 M): 45% | Inhibition of Induction of Ornithine Decarboxylase by TPA, % Inhibition of Control (Ornithine Decarboxylase; Dose 1.7 nmol): 35% | Inhibition of Induction of Ornithine Decarboxylase by TPA, % Inhibition of Control (Ornithine Decarboxylase; Dose 17 nmol): 43%

CC1=C(/C=C/C(C)=C/C=C/C(C)=C/C(=O)OC[C@]2(CO)CO[C@H](c3ccccc3)OC2)C(C)(C)CCC1 [Example 1 (Isomer (3)), (E)-2α-Phenyl-5β-hydroxymethyl-5α-retinoyloxymethyl-1,3-dioxane]
Reversal of Keratinization, Active/Total Cultures ([1]; Conc 10^-8 M): 13/13 | Reversal of Keratinization, Active/Total Cultures (%) ([1]; Conc 10^-8 M): 100% | Reversal of Keratinization, Active/Total Cultures ([1]; Conc 10^-9 M): 18/18 | Reversal of Keratinization, Active/Total Cultures (%) ([1]; Conc 10^-9 M): 100% | Reversal of Keratinization, Active/Total Cultures ([1]; Conc 10^-10 M): 7/19 | Reversal of Keratinization, Active/Total Cultures (%) ([1]; Conc 10^-10 M): 37% | Reversal of Keratinization, Active/Total Cultures ([1]; Conc 10^-11 M): 2/6 | Reversal of Keratinization, Active/Total Cultures (%) ([1]; Conc 10^-11 M): 33% | Inhibition of Induction of Ornithine Decarboxylase by TPA, % Inhibition of Control (Ornithine Decarboxylase; Dose 1.7 nmol): 47% | Inhibition of Induction of Ornithine Decarboxylase by TPA, % Inhibition of Control (Ornithine Decarboxylase; Dose 17 nmol): 57%

CC1=C(/C=C/C(C)=C/C=C/C(C)=C/C(=O)OC[C@]2(CO)CO[C@@H](c3ccccc3)OC2)C(C)(C)CCC1 [Example 1 (Isomer (2)), (E)-2α-Phenyl-5α-hydroxymethyl-5β-retinoyloxymethyl-1,3-dioxane]
Reversal of Keratinization, Active/Total Cultures ([1]; Conc 10^-8 M): 13/13 | Reversal of Keratinization, Active/Total Cultures (%) ([1]; Conc 10^-8 M): 100% | Reversal of Keratinization, Active/Total Cultures ([1]; Conc 10^-9 M): 17/18 | Reversal of Keratinization, Active/Total Cultures (%) ([1]; Conc 10^-9 M): 94% | Reversal of Keratinization, Active/Total Cultures ([1]; Conc 10^-10 M): 9/18 | Reversal of Keratinization, Active/Total Cultures (%) ([1]; Conc 10^-10 M): 50% | Reversal of Keratinization, Active/Total Cultures ([1]; Conc 10^-11 M): 2/6 | Reversal of Keratinization, Active/Total Cultures (%) ([1]; Conc 10^-11 M): 33% | Inhibition of Induction of Ornithine Decarboxylase by TPA, % Inhibition of Control (Ornithine Decarboxylase; Dose 1.7 nmol): 40% | Inhibition of Induction of Ornithine Decarboxylase by TPA, % Inhibition of Control (Ornithine Decarboxylase; Dose 17 nmol): 49%
